Measurements published in PubChem BioAssay (NCI).
Values joined by “and” are separate entries in the source; they are usually repeats but may differ in a detail not shown here. Identical values can stand only once.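 Test compounds were applied to cells in 96-well plates for 48 hours at 5 doses. The concentration for full growth arrest is given as TGI.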

What follows are compounds tested on MOLT-4 leukemia (assay: NCI-60 cell line screen, 48 h).
`CN1CCc2c(sc3[nH]c(=S)[nH]c(=S)c23)C1` gave a TGI greater than 100 µM. In the case of `Cc1n[n+](Cc2ccccc2)c2sc(N)nn12`, the TGI is reported as greater than 100 µM. Work on `O=C(NCCN1CCOCC1)c1ccc(I)cc1` yielded a TGI greater than 100 µM. With `Cc1ccc(S(=O)(=O)C2=C(C(C)C)N=NC2(C)C)cc1` the TGI was greater than 100 µM. In the case of `CCC1CC(O)c2c(O)c3c(c(O)c2C1O)C(=O)c1cccc(O)c1C3=O` (configuration not stated) (tested in a mixture with another compound), the TGI is reported as 0.0755 µM and 0.0479 µM. In the case of `COc1ccc(/C(Cl)=C(\C#N)c2ccc(OC)c(OC)c2)cc1OC`, the TGI is reported as greater than 100 µM. With `COCn1cnc2c(=O)nc(SC)n(-c3ccccc3)c21` the TGI was greater than 100 µM.

What follows are compounds tested on HCC-2998 colon (assay: NCI-60 cell line screen, 48 h).
With `CC(=O)O[C@@]12CO[C@@H]1CC(O)[C@@]1(C)C(=O)[C@H](O)C3=C(C)C(O)C[C@@](O)(C(OC(=O)c4ccccc4)C12)C3(C)C` (some centres not stated) the TGI was 21.6 µM. For `CN(C)CCCNc1ccc2ncn3c4ccc(O)cc4c(=O)c1c23`, the TGI was 18.1 µM. `Cc1ccc(NC(=O)C(=O)C2C(=O)NC(=O)NC2=O)cc1C` gave a TGI greater than 100 µM. For `S=C1NCCN1C(=S)Nc1ccccc1`, the TGI was greater than 100 µM. Work on `C[n+]1c2ccccc2c(NC(CCCN=C(N)N)C(=O)O)c2ccccc21` (configuration not stated) yielded a TGI greater than 100 µM. With `CCOC(=O)c1ccc(-c2ccc(Cl)cc2)[nH]1` the TGI was greater than 10 µM. `CC1CC(Nc2ccc(Br)cc2)N(C(=O)c2ccc(Br)cc2)O1` (configuration not stated) showed a TGI greater than 10 µM. `OC(C/C=N/N=C/CC(O)(C(F)(F)Cl)C(F)(F)Cl)(C(F)(F)Cl)C(F)(F)Cl` showed a TGI greater than 10 µM. For `O=C1C=C(Nc2ccc(S(=O)(=O)Nc3nccs3)cc2)c2ccccc2C1=O`, the TGI was 47.3 µM. `O=c1[nH]c2nc3ccccc3c(=O)n2/c1=C/c1cccs1` showed a TGI greater than 100 µM. Compound `Cc1cc(C)nc(NC(P(=O)(O)O)P(=O)(O)O)n1` has a TGI greater than 100 µM. For `COc1ccc(/C=N/N=C(\N)NO)c(OC)c1C`, the TGI was 22.1 µM. `CCCC(=O)[O-].CCCC(=O)[O-].NCCN.NCCN.[Co+3].[O-][Cl+3]([O-])([O-])[O-]` was tested, and the TGI was greater than 100 µM. `COc1ccc(N2C(=O)C(=O)N(c3ccc(N=Nc4ccccc4)cc3)C2=S)cc1` showed a TGI of 30.1 µM. `C=C1CCCCCCCCC/C=C/1SCCCSC` was tested, and the TGI was greater than 100 µM. In the case of `COc1ccc2nc3cc(Cl)ccc3c(Sc3ccc(NC(C)=O)cc3)c2c1`, the TGI is reported as 5.93 µM. `COc1cccc(-c2nc(-c3cnccn3)n(C/C=C/c3ccccc3)n2)c1` gave a TGI greater than 10 µM. `Nc1c(S(=O)(=O)c2ccccc2)c2nc3ccccc3nc2n2c1nc1ccccc12` was tested, and the TGI was greater than 100 µM. With `C=C1CC[C@H]2C(=O)OC(c3ccoc3)C[C@]2(C)C/C=C\C=C/1C(=O)OC` (some centres not stated) the TGI was greater than 25 µM. Work on `O=C1C(Br)=CC2(C=C1Br)CCNC1=C2C(=O)c2ncccc2C1=O` yielded a TGI of 4.23 µM. `COC(=O)[C@@H](NC(=O)N(Cc1ccccc1)C[C@H](CC(C)C)NC(=O)[C@@H](NC(=O)OC(C)(C)C)C(C)C)C(C)C` showed a TGI greater than 100 µM. `CCCCC1Cc2cc(O)ccc2-c2nc3cc(O)ccc3n21` (configuration not stated) (tested in a mixture with another compound) was tested, and the TGI was 27.4 µM. Work on `CC(NC(=O)c1c(O)[nH]c(=S)[nH]c1=O)c1ccc([N+](=O)[O-])cc1` (configuration not stated) yielded a TGI greater than 100 µM. `CC(=O)c1c(N=[N+]=[N-])c2cccc3c2n(c1=O)CCC3` gave a TGI of 32 µM. `COC(=O)N[C@H](C(=O)NC(OCc1ccccc1)C1COC(C)(C)O1)C(C)O[Si](C)(C)C(C)(C)C` (some centres not stated) showed a TGI greater than 100 µM. In the case of `O=Cc1ccc(-c2ccc(-c3ccc(CO)s3)o2)s1`, the TGI is reported as 18.3 µM. For `CC(=O)Nc1c(C(=N)C#N)ncn1CCO`, the TGI was greater than 100 µM. `O=C(NCCN1CCOCC1)c1ccc(I)cc1` was tested, and the TGI was greater than 100 µM. In the case of `Cc1ccc(S(=O)(=O)C2=C(C(C)C)N=NC2(C)C)cc1`, the TGI is reported as greater than 100 µM. `CCC1CC(O)c2c(O)c3c(c(O)c2C1O)C(=O)c1cccc(O)c1C3=O` (configuration not stated) (tested in a mixture with another compound) was tested, and the TGI was 0.0478 µM and 0.0298 µM. `COc1ccc(/C(Cl)=C(\C#N)c2ccc(OC)c(OC)c2)cc1OC` showed a TGI greater than 100 µM. With `CCOC(=O)CCC1(CCC(=O)OCC)CCCCCCCCC(CCC(=O)OCC)(CCC(=O)OCC)C(=O)C1=O` the TGI was greater than 100 µM. For `COCn1cnc2c(=O)nc(SC)n(-c3ccccc3)c21`, the TGI was greater than 100 µM.

Each compound was assayed on CCRF-CEM leukemia (assay: NCI-60 cell line screen, 48 h).
`CC(=O)O[C@@]12CO[C@@H]1CC(O)[C@@]1(C)C(=O)[C@H](O)C3=C(C)C(O)C[C@@](O)(C(OC(=O)c4ccccc4)C12)C3(C)C` (some centres not stated) gave a TGI greater than 100 µM. For `COc1ccc(CNc2nc(NC3CCCCC3)nc(NC3CCCCC3)n2)cc1`, the TGI was greater than 100 µM. Compound `CN(C)CCCNc1ccc2ncn3c4ccc(O)cc4c(=O)c1c23` has a TGI of 32.6 µM. For `Cc1ccc(NC(=O)C(=O)C2C(=O)NC(=O)NC2=O)cc1C`, the TGI was greater than 100 µM. For `S=C1NCCN1C(=S)Nc1ccccc1`, the TGI was greater than 100 µM. `CCOC(=O)c1ccc(-c2ccc(Cl)cc2)[nH]1` showed a TGI greater than 10 µM. Work on `CC1CC(Nc2ccc(Br)cc2)N(C(=O)c2ccc(Br)cc2)O1` (configuration not stated) yielded a TGI greater than 10 µM. With `OC(C/C=N/N=C/CC(O)(C(F)(F)Cl)C(F)(F)Cl)(C(F)(F)Cl)C(F)(F)Cl` the TGI was greater than 10 µM. For `O=C1C=C(Nc2ccc(S(=O)(=O)Nc3nccs3)cc2)c2ccccc2C1=O`, the TGI was 48.1 µM. `O=c1[nH]c2nc3ccccc3c(=O)n2/c1=C/c1cccs1` showed a TGI greater than 100 µM. `COc1ccc(/C=N/N=C(\N)NO)c(OC)c1C` gave a TGI greater than 100 µM. `CCCC(=O)[O-].CCCC(=O)[O-].NCCN.NCCN.[Co+3].[O-][Cl+3]([O-])([O-])[O-]` was tested, and the TGI was greater than 100 µM.
